Assay results reported in PMC7374938 (Journal of medicinal chemistry, 2017).
Structures can show the parent of a compound that is named as a salt.

What was measured:
[1] = target: T1, human 5-HT2C-INI receptor (Homo sapiens, UniProt P28335); experiment: Calcium flux assay; type: cell-based; conditions: for 5-HT2C EC50: Table 1, FLIPR calcium flux, calculated from averaged pEC50; for Emax: read-out: 5-HT2C Emax, Table 1, normalized to % 5-HT, mean ± SEM (n = 3), NA = no activity up to 10 μM
T1 sequence (P28335 33-458): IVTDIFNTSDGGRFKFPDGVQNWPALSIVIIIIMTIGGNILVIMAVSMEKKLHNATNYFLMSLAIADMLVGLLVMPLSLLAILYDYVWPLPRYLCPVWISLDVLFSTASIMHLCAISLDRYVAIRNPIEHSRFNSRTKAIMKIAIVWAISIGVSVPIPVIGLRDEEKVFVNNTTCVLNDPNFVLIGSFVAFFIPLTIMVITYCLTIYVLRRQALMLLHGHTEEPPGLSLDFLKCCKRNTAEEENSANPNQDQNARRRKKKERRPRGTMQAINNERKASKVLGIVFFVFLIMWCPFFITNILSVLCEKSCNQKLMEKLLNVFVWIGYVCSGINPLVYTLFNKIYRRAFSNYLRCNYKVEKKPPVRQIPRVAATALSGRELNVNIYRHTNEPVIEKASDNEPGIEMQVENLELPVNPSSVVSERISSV

C57BL/6J mice [2] = experiment: Phencyclidine; type: in vivo, mouse; conditions: PCP 5 mg/kg, 60 min
[3] = target: T1, human 5-HT2C-INI receptor; experiment: Tango β-arrestin-2 recruitment assay; type: cell-based; conditions: for β-arrestin recruitment activity: 5-HT2C
C57BL/6J mice [4] = experiment: Baseline; type: in vivo, mouse; conditions: 0–15 min, male C57BL/6J mice
C57BL/6J mice [5] = experiment: Amphetamine; type: in vivo, mouse; conditions: AMPH 3 mg/kg, 90 min
5-HT2C [6] = target: T2, 5-HT2C (Homo sapiens, UniProt P28335); conditions: cited from earlier work
T2 sequence (P28335 33-458): T1 sequence (P28335 33-458)

5-HT2B [7] = target: T3, 5-HT2B (Homo sapiens, UniProt P41595); conditions: cited from earlier work
T3 sequence (P41595 whole entry): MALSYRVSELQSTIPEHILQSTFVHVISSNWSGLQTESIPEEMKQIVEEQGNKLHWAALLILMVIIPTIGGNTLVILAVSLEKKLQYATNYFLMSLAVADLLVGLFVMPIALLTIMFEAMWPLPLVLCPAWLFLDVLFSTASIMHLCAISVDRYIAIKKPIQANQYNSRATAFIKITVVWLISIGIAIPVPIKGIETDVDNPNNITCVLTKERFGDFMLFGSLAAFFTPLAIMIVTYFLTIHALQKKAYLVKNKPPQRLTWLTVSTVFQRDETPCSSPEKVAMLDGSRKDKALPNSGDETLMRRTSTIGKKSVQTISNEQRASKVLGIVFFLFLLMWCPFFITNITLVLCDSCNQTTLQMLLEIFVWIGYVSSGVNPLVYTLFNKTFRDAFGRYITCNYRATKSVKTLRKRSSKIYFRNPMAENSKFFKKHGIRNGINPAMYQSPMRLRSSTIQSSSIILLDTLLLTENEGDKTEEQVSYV

5-HT2B [8] = target: T3, 5-HT2B; experiment: Calcium flux assay; type: cell-based
5-HT2A [9] = target: T4, 5-HT2A (Homo sapiens, UniProt P28223); conditions: cited from earlier work
T4 sequence (P28223 whole entry): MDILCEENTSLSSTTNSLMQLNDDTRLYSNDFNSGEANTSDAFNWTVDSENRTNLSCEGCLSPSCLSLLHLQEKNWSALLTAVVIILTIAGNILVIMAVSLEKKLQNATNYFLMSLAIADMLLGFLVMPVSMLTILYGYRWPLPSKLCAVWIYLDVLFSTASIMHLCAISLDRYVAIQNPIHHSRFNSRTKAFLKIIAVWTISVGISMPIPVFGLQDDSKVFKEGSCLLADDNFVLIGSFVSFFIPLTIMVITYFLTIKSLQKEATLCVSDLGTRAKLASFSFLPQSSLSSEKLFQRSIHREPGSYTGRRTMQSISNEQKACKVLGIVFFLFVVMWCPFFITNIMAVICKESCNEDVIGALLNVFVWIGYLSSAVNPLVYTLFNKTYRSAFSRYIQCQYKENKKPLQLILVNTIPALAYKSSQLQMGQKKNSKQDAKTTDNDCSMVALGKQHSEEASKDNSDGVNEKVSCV

5-HT2C [10] = target: T2, 5-HT2C; experiment: Binding affinity
[11] = cited from earlier work
[12] = system: serotonin receptors, dopamine receptors, monoamine transporters, and other selected CNS targets; experiment: Off-target binding panel; conditions: panel of CNS targets
CYP2D6 = CYP2D6 (Homo sapiens, UniProt P10635); experiment: in vitro; conditions: human liver microsomes, probe dextromethorphan
Sequence of CYP2D6 (P10635 whole entry): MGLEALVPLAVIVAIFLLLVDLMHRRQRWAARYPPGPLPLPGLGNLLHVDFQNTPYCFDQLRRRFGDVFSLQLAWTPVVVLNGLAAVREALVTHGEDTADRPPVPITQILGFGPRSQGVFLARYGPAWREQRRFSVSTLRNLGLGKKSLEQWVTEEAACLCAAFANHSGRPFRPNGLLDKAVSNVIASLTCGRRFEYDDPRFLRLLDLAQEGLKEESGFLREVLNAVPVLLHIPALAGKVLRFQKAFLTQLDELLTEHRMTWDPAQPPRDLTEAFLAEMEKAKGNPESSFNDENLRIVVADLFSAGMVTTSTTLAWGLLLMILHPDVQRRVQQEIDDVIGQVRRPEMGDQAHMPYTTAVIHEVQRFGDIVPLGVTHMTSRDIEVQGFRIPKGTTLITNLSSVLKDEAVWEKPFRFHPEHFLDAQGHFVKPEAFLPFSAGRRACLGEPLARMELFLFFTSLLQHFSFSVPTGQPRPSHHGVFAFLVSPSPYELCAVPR

CYP3A4 = CYP3A4 (Homo sapiens, UniProt P08684); experiment: in vitro; conditions: human liver microsomes, probe midazolam
Sequence of CYP3A4 (P08684 whole entry): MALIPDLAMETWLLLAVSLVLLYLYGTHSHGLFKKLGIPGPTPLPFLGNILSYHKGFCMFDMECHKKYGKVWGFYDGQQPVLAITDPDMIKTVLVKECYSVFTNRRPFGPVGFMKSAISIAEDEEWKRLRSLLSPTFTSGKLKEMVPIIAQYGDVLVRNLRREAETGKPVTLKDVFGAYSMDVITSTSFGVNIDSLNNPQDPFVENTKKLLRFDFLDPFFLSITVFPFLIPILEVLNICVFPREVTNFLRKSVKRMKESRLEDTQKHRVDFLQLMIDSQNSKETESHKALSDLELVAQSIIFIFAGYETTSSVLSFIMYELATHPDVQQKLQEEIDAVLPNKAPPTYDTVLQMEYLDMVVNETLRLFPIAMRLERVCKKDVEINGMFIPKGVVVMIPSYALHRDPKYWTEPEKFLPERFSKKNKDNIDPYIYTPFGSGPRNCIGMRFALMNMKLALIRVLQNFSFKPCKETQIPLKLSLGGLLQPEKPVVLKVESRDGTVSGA

5-HT2A [13] = target: T4, 5-HT2A; experiment: Calcium flux assay; type: cell-based; conditions: read-out: 5-HT2A Emax

COc1ccc(F)cc1C1CC1CNCc1cccc2cc[nH]c12.Cl (racemic) [(±)-38, 1-[2-(5-Fluoro-2-methoxyphenyl)cyclopropyl)-N-[(1H-indol-7-yl)methyl]methanamine Hydrochloride]
5-HT2C EC50 [1]: entirely inactive

COc1ccc(F)cc1C1CC1CNCc1ccccc1C(N)=O (racemic) [(±)-25, 2-[[[[2-(5-Fluoro-2-methoxyphenyl)cyclopropyl]methyl]amino]methyl]benzamide Hydrochloride]
Emax [1]: < 35%

COc1ccc(F)cc1C1CC1CNCC1CC1.Cl (racemic) [(±)-17, 1-Cyclopropyl-N-[[2-(5-fluoro-2-methoxyphenyl)cyclopropyl]methyl]methanamine Hydrochloride]
EC50 [1]: > 300 nM | 5-HT2C EC50 [1]: lack of activity

C[C@H]1CNCCc2ccc(Cl)cc21 [lorcaserin, reference compound]
effect on PCP-induced hyperactivity (C57BL/6J mice [2]; 3 mg/kg IP): no overall reduction in activity that was statistically significant | Emax ([3]; read-out: β-arrestin-2 Emax): 97 ± 2.1% | baseline locomotion (C57BL/6J mice [4]; 3 mg/kg IP): decreased baseline locomotion | effect on amphetamine-induced hyperactivity (C57BL/6J mice [5]; 3 mg/kg IP): reduced amphetamine-induced hyperactivity

CNc1nc(Cc2ccccc2)cc2c1CCNCC2 [PF-04781340]
5-HT2C Emax (5-HT2C [6]): 99% | EC50 (5-HT2C [6]; read-out: 5-HT2C EC50): 9 nM | selectivity over 5-HT2B (5-HT2B [7]): about 160 fold

COc1ccc(F)cc1C1CC1CNCc1ccccc1C#N (racemic) [(±)-24, 2-[[[[2-(5-Fluoro-2-methoxyphenyl)cyclopropyl]methyl]amino]methyl]benzonitrile Hydrochloride]
Emax [1]: < 35%

COc1ccccc1CN(C)CC1CC1c1cc(F)ccc1OC.Cl (racemic) [(±)-28, 1-[2-(5-Fluoro-2-methoxyphenyl)cyclopropyl]-N-(2-methoxybenzyl)-N-methylmethanamine Hydrochloride]
reduction of 5-HT2C potency compared to the parent compound (+)-19 ([1]; racemate vs (+)-19): 15 fold

COc1ccc(F)cc1[C@H]1C[C@@H]1CNCc1cccs1.Cl [(+)-32, (+)-1-[(1S,2S)-2-(5-Fluoro-2-methoxyphenyl)cyclopropyl]-N-(thiophen-2-ylmethyl)methanamine Hydrochloride]
β-arrestin recruitment activity [3]: no β-arrestin recruitment activity | selectivity for 5-HT2C over 5-HT2B (5-HT2B [8]): full selectivity

CNc1nc(Cc2ccccc2)nc2c1CCNC[C@@H]2C [PF-4479745]
agonism at 5-HT2A (5-HT2A [9]): no measurable agonism | agonism at 5-HT2B (5-HT2B [7]): no measurable agonism

CNC[C@H]1C[C@@H]1c1cc(F)ccc1OC.Cl [(+)-15a, (+)-1-[(1S,2S)-2-(5-Fluoro-2-methoxyphenyl)cyclopropyl]-N-methylmethanamine Hydrochloride]
β-arrestin recruitment activity [3]: no β-arrestin recruitment activity | Ki (5-HT2C [10]): 81 nM

COc1ccc(F)cc1C1CC1CNCc1ccccc1O.Cl (racemic) [(±)-22, 2-[[[[2-(5-Fluoro-2-methoxyphenyl)cyclopropyl]methyl]amino]methyl]phenol Hydrochloride]
selectivity for 5-HT2C over 5-HT2B (5-HT2B [8]): full selectivity

COc1cc(CC(C)N)c(OC)cc1I (stereo not shown) [DOI]
effect on the locomotor effects of PCP [11]: potentiate the locomotor effects of PCP

COc1ccccc1CNC[C@H]1C[C@@H]1c1cc(F)ccc1OC.Cl [(+)-19, (+)-1-[(1S,2S)-2-(5-Fluoro-2-methoxyphenyl)cyclopropyl]-N-(2-methoxybenzyl)methanamine Hydrochloride]
off-target affinity [12]: None of the other screened targets were found to display any significant off-target affinity | effect on PCP-induced hyperactivity (C57BL/6J mice [2]; 10 mg/kg IP): increased locomotion | effect on PCP-induced hyperactivity (C57BL/6J mice [2]; 20 mg/kg IP): had no effect on PCP-induced hyperlocomotion | inhibition at 10 µM (CYP2D6): > 50% | inhibition at 10 µM (CYP3A4): > 50% | baseline locomotion (C57BL/6J mice [4]; 10 mg/kg IP): had no effect | baseline locomotion (C57BL/6J mice [4]; 20 mg/kg IP): had no effect | effect on amphetamine-induced hyperactivity (C57BL/6J mice [5]; 10 mg/kg IP): no significant effect | effect on amphetamine-induced hyperactivity (C57BL/6J mice [5]; 20 mg/kg IP): decreased the hyperlocomotion

COc1ccc(F)cc1[C@@H]1C[C@H]1CNCc1ccccc1Cl [(−)-27, (–)-N-(2-Chlorobenzyl)-1-[(1R,2R)-2-(5-fluoro-2-methoxyphenyl)cyclopropyl]methanamine Hydrochloride]
Emax (5-HT2A [13]): 84 ± 3.9%
